From ChEMBL document CHEMBL1201862, “PubChem BioAssay data set” (2004) come the findings set out here.

Common to all, as to assay: inhibition of tumour cell growth, NCI panel, 48 h
The subject of assay [1] is OVCAR-8.
Assay [2] relates to Hs-578T.
The test system of assay [3] is SW-620.
Assay [4] deals with MDA-MB-435.
Assay [5] concerns SK-OV-3.
For assay [6], the system named is K562.
Assay [7] relates to 786-0.
Assay [8] deals with Malme-3M.
Assay [9] has as its system MCF7.
For assay [10], the system named is UACC-62.
Assay [11] relates to LOX IMVI.
The test system of assay [12] is SF-295.
Assay [13] has as its system DU-145.
Assay [14] has as its system SF-539.
For assay [15], the system named is UACC-257.
Assay [16] concerns SNB-19.
Assay [17] relates to SNB-75.
Assay [18] deals with EKVX.
The test system of assay [19] is COLO 205.
The subject of assay [20] is NCI-H522.

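Assay format: 96-well plates, 48-hour exposure. GI50 marks 50% less growth.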 The source made the active and inactive calls. Rule as the data show it: active = GI50 up to about 1.1 µM and inactive = higher.

On to `Cc1c(-c2nc(N)c(C#N)c(N)c2C#N)c(=O)oc2ccccc12`, for which the GI50 in [1] is > 100 µM (inactive); in assay [2], > 100 µM (inactive); in [3], 68.5 µM (inactive); in assay [4], > 10 µM (inactive); in assay [5], > 100 µM (inactive); in assay [6], 59.4 µM (inactive). The GI50 in assay [7] is 73.8 µM (inactive); in assay [8], > 100 µM (inactive); in [9], 73.6 µM (inactive); in assay [10] it was > 100 µM (inactive); in assay [11] it was 60.3 µM (inactive); in assay [12], 70 µM (inactive). The GI50 in [13] was > 100 µM (inactive); in assay [14], > 100 µM (inactive); in assay [15], > 100 µM (inactive); in assay [16], > 100 µM (inactive); in assay [17] it was > 100 µM (inactive); in [18], 68.1 µM (inactive). Besides, the GI50 in [19] was 60.7 µM (inactive).

As for `COC(=O)/C=C(\S/C(=C(/c1ccccc1)n1cc(C(=O)OC)c(C(=O)OC)n1)c1ccccc1)C(=O)OC`, the GI50 in [1] is 2 µM (inactive); in assay [2] it was 33.3 µM (inactive); in [3], 2.37 µM (inactive); in assay [4], 15.8 µM (inactive); in assay [5], > 100 µM (inactive); in assay [6], 3.54 µM (inactive). The GI50 was 4.79 µM (inactive) in assay [7]; 14.8 µM (inactive) in assay [8]; 5.26 µM (inactive) in assay [9]; 30.5 µM (inactive) in assay [10]; 8.17 µM (inactive) in assay [11]; 53.8 µM (inactive) in [12]. Moreover, the GI50 is 14.7 µM (inactive) in assay [13]; 15.8 µM (inactive) in assay [14]; 7.33 µM (inactive) in assay [15]; 19.5 µM (inactive) in assay [16]; 29.1 µM (inactive) in assay [17]; 18.2 µM (inactive) in [18]. For the same compound, the GI50 in assay [19] was 1.74 µM (inactive).

With `Cc1nc2ccccc2c(=O)n1-c1n[nH]c2ccccc12`, the GI50 in assay [1], in assay [2], in assay [3], in [4], in assay [6] and in [7] was > 100 µM (inactive) throughout. The GI50 in [20], in [8], in [9], in assay [10], in assay [11] and in [12] was > 100 µM (inactive) throughout. The GI50 in assay [13], in assay [14], in assay [15], in [16], in [17] and in assay [18] was > 100 µM (inactive) each time. Also, the GI50 in assay [19] was > 100 µM (inactive).

As to `CCN(CC)C(=O)Cn1c2ccccc2[n+]2cc(N)ccc12`, the GI50 in assay [1], in assay [2], in assay [3], in assay [4], in [5] and in assay [6] was > 100 µM (inactive) throughout. Besides, the GI50 in assay [7], in assay [8], in [9], in assay [10], in assay [11] and in assay [12] was > 100 µM (inactive) throughout. Also, the GI50 in assay [13], in [14], in assay [15], in assay [16], in [17] and in assay [18] was > 100 µM (inactive) in each case. Further, in assay [19], the GI50 was > 100 µM (inactive).

For `Cc1cn(C2CC(Br)C(COC(c3ccccc3)(c3ccccc3)c3ccccc3)O2)c(=O)[nH]c1=O` (stereo not given), the GI50 in [1] is 10.9 µM (inactive); in assay [2] it was 14.6 µM (inactive); in [3] it was 14.3 µM (inactive); in [4] it was 14.7 µM (inactive); in assay [6], 7.98 µM (inactive); in assay [7], 14.3 µM (inactive). For the same compound, the GI50 in assay [20] was 7.24 µM (inactive); in [8], 17.6 µM (inactive); in [9] it was 10 µM (inactive); in assay [10] it was 12.2 µM (inactive); in assay [11] it was 11.9 µM (inactive); in assay [12] it was 9.68 µM (inactive). In addition, the GI50 is 14.5 µM (inactive) in assay [13]; 17.2 µM (inactive) in [14]; 16.1 µM (inactive) in [15]; 16.3 µM (inactive) in assay [16]; 11.5 µM (inactive) in assay [17]; 14.5 µM (inactive) in [18]. Moreover, the GI50 in assay [19] is 14 µM (inactive).

In the case of `Cc1cc(S(=O)(=O)N2CCNNC2=O)c(S)cc1Cl`, the GI50 is > 100 µM (inactive) in assay [1]; > 100 µM (inactive) in [2]; 36.9 µM (inactive) in assay [3]; > 100 µM (inactive) in [4]; 37.2 µM (inactive) in assay [6]; 19.9 µM (inactive) in [7]. The GI50 in [20] is 22.5 µM (inactive); in assay [8] it was 17.7 µM (inactive); in [9] it was 77.3 µM (inactive); in [10], > 100 µM (inactive); in assay [11], 28.8 µM (inactive); in assay [12], > 100 µM (inactive). The GI50 in assay [13] was > 100 µM (inactive); in assay [14] it was 37 µM (inactive); in assay [15], > 100 µM (inactive); in assay [16] it was > 100 µM (inactive); in assay [17], > 100 µM (inactive); in [18], > 100 µM (inactive). The GI50 in assay [19] is > 100 µM (inactive).

As for `CCOC(=O)C[n+]1cccc(C2(c3cc4ccccc4[nH]3)OCCO2)c1`, the GI50 in [1], in assay [2], in assay [3], in [4], in [5] and in [6] was > 100 µM (inactive) each time. For the same compound, the GI50 in assay [7], in [8], in assay [9], in assay [10], in [11] and in assay [12] was > 100 µM (inactive) in each case. For the same compound, the GI50 in assay [13], in assay [14], in assay [15], in assay [16], in [17] and in [18] was > 100 µM (inactive) each time. Moreover, in assay [19], the GI50 is > 100 µM (inactive).

As to `CN(C(=O)c1cccs1)C(=S)N1CCN(c2ccccc2)CC1`, the GI50 in assay [1] was > 100 µM (inactive); in assay [2] it was 42.7 µM (inactive); in assay [3], > 100 µM (inactive); in assay [4] it was > 100 µM (inactive); in assay [6], > 100 µM (inactive); in [7], > 100 µM (inactive). Besides, the GI50 in [20], in assay [8], in [9], in [10], in assay [11] and in assay [12] was > 100 µM (inactive) in each case. The GI50 in [13], in assay [15], in [16], in assay [17] and in [19] was > 100 µM (inactive) each time.

For the compound `Cc1nc(N)c(N2CCN(C(=O)O)CC2)c(O)n1`, the GI50 in assay [1], in [2], in [3], in [4], in assay [6] and in assay [7] was > 100 µM (inactive) each time. Moreover, the GI50 in [20], in [8], in assay [9], in assay [11], in assay [12] and in assay [13] was > 100 µM (inactive) in each case. The GI50 in assay [14], in assay [15], in assay [16], in assay [17], in assay [18] and in assay [19] was > 100 µM (inactive) in each case.

Consider `COc1ccc2nc(/C(N)=C\C#N)ccc2c1`, for which the GI50 in [1] was 36.8 µM (inactive); in assay [2], 1.01 µM (active); in [3] it was > 100 µM (inactive); in assay [4] it was 32.6 µM (inactive); in [6], 31.6 µM (inactive); in assay [7] it was 34.7 µM (inactive). Moreover, the GI50 in [20] was 37 µM (inactive); in [8], > 100 µM (inactive); in assay [9] it was > 100 µM (inactive); in assay [10], 6.58 µM (inactive); in assay [11], 36 µM (inactive); in [12], 93.8 µM (inactive). Besides, the GI50 in assay [13] was 92.5 µM (inactive); in assay [14], 46 µM (inactive); in assay [15], > 100 µM (inactive); in assay [16], > 100 µM (inactive); in assay [17], > 100 µM (inactive); in [18], 0.15 µM (active). The GI50 in assay [19] is 56 µM (inactive).

Regarding `COc1ccc(OC)c(C2CCCc3c2cnc2nc(N)nc(N)c32)c1` (stereo not given), the GI50 in assay [1] is < 0.01 µM (active); in assay [2] it was > 57.3 µM (inactive); in assay [4] it was < 0.01 µM (active); in [6] it was < 0.01 µM (active); in assay [7] it was < 0.01 µM (active); in assay [20] it was < 0.0392 µM (active). Besides, the GI50 is < 0.0238 µM (active) in assay [8]; < 0.01 µM (active) in [9]; < 0.01 µM (active) in assay [10]; < 0.01 µM (active) in assay [11]; < 0.0143 µM (active) in [12]; 0.0132 µM (active) in [13]. The GI50 was < 0.0119 µM (active) in assay [14]; < 0.01 µM (active) in assay [15]; 0.0703 µM (active) in assay [16]; 0.247 µM (active) in assay [17]; > 100 µM (inactive) in assay [18]; 0.352 µM (active) in assay [19].
